{"source": "patent US7414061B2", "about": "“Aryl-isoxazol-4-yl-imidazole derivatives” (Hoffmann-La Roche Inc., priority 2005, dated 2008)"}
{"molecular_target": "T1, GABA A receptor α5β3γ2 (hα5) (Homo sapiens, UniProt P18507+P31644)", "T1 construct": "expressed in transfected cells; host or cells: HEK293 (transiently transfected), membrane preparation", "assay": "[3H]flumazenil competition binding assay, human GABA A α5β3γ2", "conditions": "displacement of [3H]flumazenil (0.5 nM) from HEK293 cell membranes expressing α5β3γ2; means of two determinations; read-out: Ki[nM] hα5", "protocol": "The affinity of compounds at GABA A receptor subtypes was measured by competition for [3H]flumazenil (85 Ci/mmol; Roche) binding to HEK293 cells expressing rat (stably transfected) or human (transiently transfected) receptors of composition α1β3γ2, α2β3γ2, α3β3γ2 and α5β3γ2.\nCell pellets were suspended in Krebs-tris buffer (4.8 mM KCl, 1.2 mM CaCl2, 1.2 mM MgCl2, 120 mM NaCl, 15 mM Tris; pH 7.5; binding assay buffer), homogenized by polytron for ca. 20 sec on ice and centrifuged for 60 min at 4° C. (50000 g; Sorvall, rotor: SM24=20000 rpm). The cell pellets were resuspended in Krebs-tris buffer and homogenized by polytron for ca. 15 sec on ice. Protein was measured (Bradford method, Bio-Rad) and aliquots of 1 mL were prepared and stored at −80° C.\nRadioligand binding assays were carried out in a volume of […] (96-well plates) which contained […] of cell membranes, [3H]flumazenil at a concentration of 1 nM for α1, α2, α3 subunits and 0.5 nM for α5 subunits and the test compound in the range of […]. Nonspecific binding was defined by 10^−5 M diazepam and typically represented less than 5% of the total binding. Assays were incubated to equilibrium for 1 hour at 4° C. and harvested onto GF/C uni-filters (Packard) by filtration using a Packard harvester and washing with ice-cold wash buffer (50 mM Tris; pH 7.5). After drying, filter-retained radioactivity was detected by liquid scintillation counting. Ki values were calculated using Excel-Fit (Microsoft) and are the means of two determinations.", "units": {"Ki": "nM"}}
{"smiles": "Cc1ccc(COCc2nc(-c3c(-c4ccccc4)noc3C)cn2-c2ccc([N+](=O)[O-])cc2)cc1", "note": "[Example 153, 5-Methyl-4-[2-(4-methyl-benzyloxymethyl)-1-(4-nitro-phenyl)-1H-imidazol-4-yl]-3-phenyl-isoxazole]", "Ki": 17.3}
{"smiles": "Cc1onc(-c2ccc(F)cc2)c1-c1cn(-c2ncccn2)cn1", "note": "[Example 48, 2-{4-[3-(4-Fluoro-phenyl)-5-methyl-isoxazol-4-yl]-imidazol-1-yl}-pyrimidine]", "Ki": 17.6}
{"smiles": "N#Cc1ccc(-n2cnc(-c3c(-c4ccccc4)noc3CO)c2)cc1", "note": "[Example 139, 4-[4-(5-Hydroxymethyl-3-phenyl-isoxazol-4-yl)-imidazol-1-yl]-benzonitrile]", "Ki": 28.2}
{"smiles": "Cc1onc(-c2ccc(F)cc2)c1-c1cn(-c2ccc(C(=O)NC3CCCC3)cc2)cn1", "note": "[Example 126, N-Cyclopentyl-4-{4-[3-(4-fluoro-phenyl)-5-methyl-isoxazol-4-yl]-imidazol-1-yl}-benzamide]", "Ki": 11.9}
{"smiles": "Cc1onc(-c2ccc(F)cc2)c1-c1cn(-c2cccnc2)cn1", "note": "[Example 124, 3-{4-[3-(4-Fluoro-phenyl)-5-methyl-isoxazol-4-yl]-imidazol-1-yl}-pyridine]", "Ki": 27.2}
{"smiles": "Cc1onc(-c2ccccc2)c1-c1cn(-c2ccc([N+](=O)[O-])cc2)c(COCc2ccccc2)n1", "note": "[Example 63, 4-[2-Benzyloxymethyl-1-(4-nitro-phenyl)-1H-imidazol-4-yl]-5-methyl-3-phenyl-isoxazole]", "Ki": 14.4}
{"smiles": "CCc1onc(-c2ccc(F)cc2)c1-c1cn(-c2ccc([N+](=O)[O-])cc2)cn1", "note": "[Example 134, 5-Ethyl-3-(4-fluoro-phenyl)-4-[1-(4-nitro-phenyl)-1H-imidazol-4-yl]-isoxazole]", "Ki": 12.7}
{"smiles": "Cc1onc(-c2ccccc2)c1-c1cn(-c2ncccn2)c(COCc2ccccc2)n1", "note": "[Example 66, 2-[2-Benzyloxymethyl-4-(5-methyl-3-phenyl-isoxazol-4-yl)-imidazol-1-yl]-pyrimidine]", "Ki": 6.7}
{"smiles": "CSc1ccc(-n2cnc(-c3c(-c4ccccc4)noc3C)c2)cc1", "note": "[Example 21, 5-Methyl-4-[1-(4-methylsulfanyl-phenyl)-1H-imidazol-4-yl]-3-phenyl-isoxazole]", "Ki": 31.5}
{"smiles": "Cc1onc(-c2cccc(F)c2)c1-c1cn(-c2ccc(C(=O)NCc3ccccn3)cc2)cn1", "note": "[Example 106, 4-{4-[3-(3-Fluoro-phenyl)-5-methyl-isoxazol-4-yl]-imidazol-1-yl}-N-pyridin-2-ylmethyl-benzamide]", "Ki": 32.1}
{"smiles": "Cc1onc(-c2ccccc2)c1-c1cn(-c2ccc(C#N)cc2)cn1", "note": "[Example 16, 4-[4-(5-Methyl-3-phenyl-isoxazol-4-yl)-imidazol-1-yl]-benzonitrile]", "Ki": 15.1}
{"smiles": "CCc1onc(-c2ccccc2)c1-c1cn(-c2ccc(C(C)=O)cc2)cn1", "note": "[Example 30, 1-{4-[4-(5-Ethyl-3-phenyl-isoxazol-4-yl)-imidazol-1-yl]-phenyl}-ethanone]", "Ki": 9.9}
{"smiles": "Cc1onc(-c2ccccc2)c1-c1cn(-c2ccc([N+](=O)[O-])cc2)c(COCc2ccc(F)cc2)n1", "note": "[Example 154, 4-[2-(4-Fluoro-benzyloxymethyl)-1-(4-nitro-phenyl)-1H-imidazol-4-yl]-5-methyl-3-phenyl-isoxazole]", "Ki": 13.5}
{"smiles": "Cc1onc(-c2ccccc2)c1-c1cn(-c2ccc(C(=O)NCC3CC3)cc2)cn1", "note": "[Example 71, N-Cyclopropylmethyl-4-[4-(5-methyl-3-phenyl-isoxazol-4-yl)-imidazol-1-yl]-benzamide]", "Ki": 16.7}
{"smiles": "Cc1cccc(COCc2nc(-c3c(-c4ccccc4)noc3C)cn2-c2ccc([N+](=O)[O-])cc2)n1", "note": "[Example 162, 2-Methyl-6-[4-(5-methyl-3-phenyl-isoxazol-4-yl)-1-(4-nitro-phenyl)-1H-imidazol-2-ylmethoxymethyl]-pyridine]", "Ki": 28.2}
{"smiles": "Cc1onc(-c2ccccc2)c1-c1cn(-c2ccc(C(=O)NC3CCCC3)cc2)cn1", "note": "[Example 76, N-Cyclopentyl-4-[4-(5-methyl-3-phenyl-isoxazol-4-yl)-imidazol-1-yl]-benzamide]", "Ki": 10.9}
